Data as given in patent publication US8778951B2, “Heteroaryl compounds and their uses” (Novartis AG, priority 2009, dated 2014).

target: Cdk9/cyclinT1 (Homo sapiens (Human), UniProt P50750); assay: Cdk9/CyclinT1 IMAP Protocol (fluorescence polarization kinase assay); format: biochemical; conditions: Table 2; generated using one of the two Cdk9/cyclinT1 assays (IMAP or Alpha Screen), not specified which; unit inferred
Procedure, shortened: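 Reaction used 4 nM Cdk9/cyclinT1, 100 nM 5TAMRA-cdk7tide peptide and 6 uM ATP in 100 mM Tris pH 7.2 with MgCl2, 0.01% Tween-20, 1 mM DTT and 2.5% DMSO, running 4.5 h. Phosphopeptide was captured by IMAP binding reagent for >1 h, then read by fluorescence polarization (ex 531/em 595 nm).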

Sequence of Cdk9/cyclinT1 (P50750 whole entry): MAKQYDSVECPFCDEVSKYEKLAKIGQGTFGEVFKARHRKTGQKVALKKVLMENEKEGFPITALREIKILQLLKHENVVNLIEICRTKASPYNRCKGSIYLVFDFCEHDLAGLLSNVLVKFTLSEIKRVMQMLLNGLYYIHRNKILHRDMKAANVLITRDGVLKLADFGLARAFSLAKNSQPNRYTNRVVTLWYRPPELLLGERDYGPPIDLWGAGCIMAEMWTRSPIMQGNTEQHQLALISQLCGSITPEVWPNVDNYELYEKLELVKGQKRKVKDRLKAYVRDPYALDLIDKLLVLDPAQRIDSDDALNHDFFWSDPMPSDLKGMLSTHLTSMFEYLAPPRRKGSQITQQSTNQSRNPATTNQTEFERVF
Sequence of Cdk9/cyclinT1 (O60563 whole entry partner): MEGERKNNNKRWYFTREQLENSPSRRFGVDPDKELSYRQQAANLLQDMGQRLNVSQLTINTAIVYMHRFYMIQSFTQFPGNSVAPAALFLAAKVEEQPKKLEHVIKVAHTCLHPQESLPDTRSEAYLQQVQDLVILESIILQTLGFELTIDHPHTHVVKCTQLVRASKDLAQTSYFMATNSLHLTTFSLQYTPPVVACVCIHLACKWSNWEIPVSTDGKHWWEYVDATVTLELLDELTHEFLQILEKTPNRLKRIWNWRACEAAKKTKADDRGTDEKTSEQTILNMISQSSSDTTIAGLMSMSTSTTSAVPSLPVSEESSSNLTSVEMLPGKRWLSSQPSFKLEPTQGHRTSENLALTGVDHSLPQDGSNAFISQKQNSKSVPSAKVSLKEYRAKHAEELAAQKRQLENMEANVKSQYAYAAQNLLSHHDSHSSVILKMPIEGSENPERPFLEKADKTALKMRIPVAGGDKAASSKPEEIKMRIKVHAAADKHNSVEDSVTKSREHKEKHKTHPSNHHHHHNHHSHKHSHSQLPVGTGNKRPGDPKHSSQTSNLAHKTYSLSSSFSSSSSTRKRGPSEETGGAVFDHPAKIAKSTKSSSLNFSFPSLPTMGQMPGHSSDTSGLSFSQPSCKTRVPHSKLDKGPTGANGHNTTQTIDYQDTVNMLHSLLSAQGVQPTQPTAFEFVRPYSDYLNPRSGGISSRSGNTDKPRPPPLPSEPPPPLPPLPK

Row | Compound | IC50 [nM]
1 | N[C@H]1CC[C@H](Nc2cc(-c3nc(NCC4CCOCC4)c(Cl)cc3Cl)c(Cl)cn2)CC1 [Compound 266, N2′-(trans-4-aminocyclohexyl)-3,5,5′-trichloro-N6-((tetrahydro-2H-pyran-4-yl)methyl)-2,4′-bipyridine-2′,6-diamine] | 7.94
2 | Clc1cnc(N[C@H]2CC[C@H](NCC3COCCO3)CC2)cc1-c1nc(NCC2CCOCC2)ccc1Cl (stereo partly drawn) [Compound 271] | 7.94
3 | COCCN(C)[C@H]1CC[C@H](Nc2cc(-c3nc(NCC4CCOCC4)ccc3Cl)c(Cl)cn2)CC1 [Compound 272, 3,5′-dichloro-N2′-(trans-4-((2-methoxyethyl)(methyl)amino)cyclohexyl)-N6-((tetrahydro-2H-pyran-4-yl)methyl)-2,4′-bipyridine-2′,6-diamine] | 7.94
4 | Clc1ccc(NCC2CCOCC2)nc1-c1ccnc(N[C@H]2CC[C@H](NC[C@H]3CCCO3)CC2)c1 [Compound 273] | 22.9
5 | COCCN[C@H]1CC[C@H](Nc2cc(-c3nc(NCC4CCOCC4)ccc3Cl)ccn2)CC1 [Compound 274] | 37.8
6 | Fc1ccc(-c2cc(N[C@H]3CC[C@H](NC4COC4)CC3)ncc2Cl)nc1NCC1CCOCC1 [Compound 281] | 61.2
7 | C[C@@H]1CC(CNc2cccc(-c3cc(N[C@H]4CC[C@H](N)CC4)ncc3Cl)n2)C[C@H](C)O1 (stereo partly drawn) [Compound 284, N2′-(trans-4-aminocyclohexyl)-5′-chloro-N6-(((2R,6S)-2,6-dimethyltetrahydro-2H-pyran-4-yl)methyl)-2,4′-bipyridine-2′,6-diamine] | 1
8 | COCCN[C@H]1CC[C@H](Nc2cc(-c3cccc(NCC4C[C@@H](C)O[C@@H](C)C4)n3)c(Cl)cn2)CC1 (stereo partly drawn) [Compound 285, 5′-chloro-N6-(((2R,6S)-2,6-dimethyltetrahydro-2H-pyran-4-yl)methyl)-N2′-(trans-4-(2-methoxyethylamino)cyclohexyl)-2,4′-bipyridine-2′,6-diamine] | 2
9 | O[C@@H](CN[C@H]1CC[C@H](Nc2cc(-c3nc(NCC4CCOCC4)ccc3Cl)c(Cl)cn2)CC1)C(F)(F)F [Compound 290] | 2
10 | COCCN[C@H]1CC[C@H](Nc2cc(-c3nc(NCC4CCOCC4)ccc3Br)c(Cl)cn2)CC1 [Compound 292, 3-bromo-5′-chloro-N2′-(trans-4-(2-methoxyethylamino)cyclohexyl)-N6-((tetrahydro-2H-pyran-4-yl)methyl)-2,4′-bipyridine-2′,6-diamine] | 2
11 | COC[C@@H](C)N[C@H]1CC[C@H](Nc2cc(-c3nc(NCC4CCOCC4)ccc3F)c(Cl)cn2)CC1 [Compound 293] | 1
12 | COC[C@@H](C)N[C@H]1CC[C@H](Nc2cc(-c3ccc(F)c(NCC4CCOCC4)n3)c(Cl)cn2)CC1 [Compound 294] | 1
13 | CC1(C)CC(CNc2ccc(Cl)c(-c3cc(N[C@H]4CC[C@H](NC[C@H](O)C(F)(F)F)CC4)ncc3Cl)n2)CCO1 (stereo partly drawn) [Compound 298, (2S)-3-(trans-4-(3,5′-dichloro-6-((2,2-dimethyltetrahydro-2H-pyran-4-yl)methyl)amino-2,4′-bipyridin-2′-yl-amino)cyclohexylamino)-1,1,1-trifluoropropan-2-ol] | 1
14 | CC1(C)CC(CNc2ccc(Cl)c(-c3cc(N[C@H]4CC[C@H](NC[C@@H](O)C(F)(F)F)CC4)ncc3Cl)n2)CCO1 (stereo partly drawn) [Compound 299] | 1
15 | Clc1cnc(NC[C@@H]2CCCNC2)cc1-c1cccc(NCC2CCOCC2)n1 [Compound 300] | 219
16 | Clc1cnc(NC[C@H]2CCCN2)cc1-c1cccc(NCC2CCOCC2)n1 [Compound 303] | 1300
17 | Clc1cnc(NC[C@@H]2CCCN2)cc1-c1cccc(NCC2CCOCC2)n1 [Compound 304] | 6190
18 | COC[C@@H](C)N[C@H]1CC[C@H](Nc2cc(-c3cccc(NCC4(OC)CCOCC4)n3)c(Cl)cn2)CC1 [Compound 305] | 1
19 | COC[C@@H](C)N[C@H]1CC[C@H](Nc2cc(-c3cccc(NCC4(OC)CCCCC4)n3)c(Cl)cn2)CC1 [Compound 306] | 9
20 | COC[C@@H](C)N[C@H]1CC[C@H](Nc2cc(-c3cccc(NCC4COC(C)(C)CO4)n3)c(Cl)cn2)CC1 (stereo partly drawn) [Compound 307, 5′-chloro-N6-((5,5-dimethyl-1,4-dioxan-2-yl)methyl)-N2′-(trans-4-((R)-1-methoxypropan-2-yl-amino)cyclohexyl)-2,4′-bipyridine-2′,6-diamine] | 8
21 | COC[C@@H](C)N[C@H]1CC[C@H](Nc2cc(-c3ccc(C(F)(F)F)c(NCC4CCOCC4)n3)c(Cl)cn2)CC1 [Compound 308] | 1
22 | COC[C@@H](C)N[C@H]1CC[C@H](Nc2cc(-c3nc(NCC4CCOCC4)ccc3C(F)(F)F)c(Cl)cn2)CC1 [Compound 309] | 35
23 | COC[C@@H](C)N[C@H]1CC[C@H](Nc2cc(-c3cccc(NCC4(C#N)CCOCC4)n3)c(Cl)cn2)CC1 [Compound 310, 4-((5′-chloro-2′-(trans-4-((R)-1-methoxypropan-2-yl-amino)cyclohexylamino)-2,4′-bipyridin-6-ylamino)methyl)tetrahydro-2H-pyran-4-carbonitrile] | 0.3
24 | CC1(CNc2nc(-c3cc(N[C@H]4CC[C@H](N)CC4)ncc3Cl)ccc2F)CCOCC1 [Compound 312, N2′-(trans-4-aminocyclohexyl)-5′-chloro-5-fluoro-N6-((4-methyltetrahydro-2H-pyran-4-yl)methyl)-2,4′-bipyridine-2′,6-diamine] | 0.3
25 | COCCN[C@H]1CC[C@H](Nc2cc(-c3ccc(F)c(NCC4CCOCC4)n3)c(Cl)cn2)CC1 [Compound 314] | 1
26 | [2H]C([2H])(Nc1cccc(-c2cc(N[C@H]3CC[C@H](NC[C@@H]4CCCO4)CC3)ncc2Cl)n1)C1CCOCC1 [Compound 317, 5′-chloro-N6-(dideutero-(tetrahydro-2H-pyran-4-yl)methyl)-N2′-(trans-4-(((S)-tetrahydrofuran-2-yl)methyl)aminocyclohexyl)-2,4′-bipyridine-2′,6-diamine] | 99
27 | N[C@H]1CC[C@H](Nc2cc(-c3nc(NCC4CCOCC4)c(F)cc3F)c(Cl)cn2)CC1 [Compound 318] | 0.26
28 | CC(CS(C)(=O)=O)N[C@H]1CC[C@H](Nc2cc(-c3ccc(F)c(NCC4CCOCC4)n3)c(Cl)cn2)CC1 (stereo partly drawn) [Compound 319] | 4

More lines, now with the values ahead:

Row | IC50 [nM] | Compound
29 | 7.94 | OCCN[C@H]1CC[C@H](Nc2cc(-c3nc(NCC4CCOCC4)ccc3Cl)c(Cl)cn2)CC1 [Compound 259, 2-(trans-4-(3,5′-dichloro-6-((tetrahydro-2H-pyran-4-yl)methyl)amino-2,4′-bipyridin-2′-yl-amino)cyclohexylamino)ethanol]
30 | 7.94 | N[C@H]1CC[C@H](Nc2cc(-c3nc(NCC4CCOCC4)ccc3Cl)c(F)cn2)CC1 [Compound 260, N2′-(trans-4-aminocyclohexyl)-3-chloro-5′-fluoro-N6-((tetrahydro-2H-pyran-4-yl)methyl)-2,4′-bipyridine-2′,6-diamine]
31 | 7.94 | N[C@H]1CC[C@H](Nc2cc(-c3cncc(NC[C@H]4CCCOC4)n3)c(Cl)cn2)CC1 [Compound 261]
32 | 7.94 | N[C@H]1CC[C@H](Nc2cc(-c3cncc(NC[C@@H]4CCCOC4)n3)c(Cl)cn2)CC1 [Compound 262]
33 | 7.94 | O[C@H]1CC[C@H](Nc2cc(-c3cncc(NC[C@H]4CCCOC4)n3)c(Cl)cn2)CC1 [Compound 263]
34 | 7.94 | O[C@H]1CC[C@H](Nc2cc(-c3cncc(NC[C@@H]4CCCOC4)n3)c(Cl)cn2)CC1 [Compound 264]
35 | 7.95 | N[C@H]1CC[C@H](Nc2cc(-c3ccc(F)c(NCC4CCOCC4)n3)c(Cl)cn2)CC1 [Compound 269, N2′-(trans-4-aminocyclohexyl)-5′-chloro-5-fluoro-N6-((tetrahydro-2H-pyran-4-yl)methyl)-2,4′-bipyridine-2′,6-diamine]
36 | 146 | O[C@H]1CC[C@@H](Nc2cc(-c3cccc(NCC4CCOCC4)n3)c(Cl)cn2)CC1 [Compound 275]
37 | 8.93 | COCCN[C@H]1CC[C@H](Nc2cc(-c3cccc(NCC4CCOCC4)n3)c(Cl)cn2)CC1 [Compound 276]
38 | 7.94 | Clc1cnc(N[C@H]2CC[C@H](NC[C@H]3CCCO3)CC2)cc1-c1cccc(NCC2CCOCC2)n1 [Compound 277]
39 | 7.94 | Clc1cnc(N[C@H]2CC[C@H](NC[C@@H]3CCCO3)CC2)cc1-c1cccc(NCC2CCOCC2)n1 [Compound 278]
40 | 13.1 | COCCN(C)[C@H]1CC[C@H](Nc2cc(-c3cccc(NCC4CCOCC4)n3)c(Cl)cn2)CC1 [Compound 279]
41 | 1 | N[C@H]1CC[C@H](Nc2cc(-c3nc(NCC4CCOCC4)ccc3Br)c(Cl)cn2)CC1 [Compound 286, N2′-(trans-4-aminocyclohexyl)-3-bromo-5′-chloro-N6-((tetrahydro-2H-pyran-4-yl)methyl)-2,4′-bipyridine-2′,6-diamine]
42 | 1 | CC1(C)CC(CNc2ccc(Cl)c(-c3cc(N[C@H]4CC[C@H](O)CC4)ncc3Cl)n2)CCO1 (stereo partly drawn) [Compound 297, trans-4-(3,5′-dichloro-6-((2,2-dimethyltetrahydro-2H-pyran-4-yl)methyl)amino-2,4′-bipyridin-2′-yl-amino)cyclohexanol]
43 | 3 | FC(F)(F)OCCN[C@H]1CC[C@H](Nc2cc(-c3cccc(NCC4CCOCC4)n3)c(Cl)cn2)CC1 [Compound 301, 5′-chloro-N6-((tetrahydro-2H-pyran-4-yl)methyl)-N2′-(trans-4-(2-(trifluoromethoxy)ethylamino)cyclohexyl)-2,4′-bipyridine-2′,6-diamine]
44 | 1 | CC1(CNc2cccc(-c3cc(N[C@H]4CC[C@H](N)CC4)ncc3Cl)n2)CCOCC1 [Compound 311, N2′-(trans-4-aminocyclohexyl)-5′-chloro-N6-((4-methyltetrahydro-2H-pyran-4-yl)methyl)-2,4′-bipyridine-2′,6-diamine]
45 | 1 | N[C@H]1CC[C@H](Nc2cc(-c3cccc(NCC4(F)CCOCC4)n3)c(Cl)cn2)CC1 [Compound 313, N2′-(trans-4-aminocyclohexyl)-5′-chloro-N6-((4-fluorotetrahydro-2H-pyran-4-yl)methyl)-2,4′-bipyridine-2′,6-diamine]
